Measured values: patent US6420119B1, “Methods of diagnosing and treating urinary incontinence relating to collagen proteolysis in pelvic supporting tissue” (The Board of Trustees of the Leland Stanford Jr. University, priority 1999, dated 2002)
Where a name gives a salt, the structure may show the parent alone.

Tests used:
[1] = system: procollagenase; details: cultured rabbit uterine cervical fibroblasts; cited from earlier work
[2] = system: procollagenase; details: pregnant guinea pig cervix; cited from earlier work
[3] = system: TIMPs; details: cultured rabbit uterine cervical fibroblasts; cited from earlier work
[4] = system: collagenase; details: human cervix, intravenous; cited from earlier work
[5] = patients with advanced lung carcinoma; relative to levels required for MMP inhibition in vitro; cited from earlier work
[6] = system: matrix metalloproteinases; details: human endometrium during the menstrual cycle; cited from earlier work
[7] = system: TIMP-3; assay: TIMP-3 mRNA expression in cultured human endometrial stromal cells; type: cell-based; details: vs control cells
Source text: (§1) (a) GnRH Agonist: Trophoblast invasion is regulated in part by MMP-9 which can be inhibited by both TIMP-1 and TIMP-3 (25). […] Moreover, the expression of TIMP-1 appeared to be affected to a much greater extent than that of TIMP-3 (26).
(§2) Our laboratory has examined the ability of IL-1β and transforming growth factor-β (TGF-13) to regulate MMP-9, TIMP-1, and TIMP-3 mRNA expression in cultured human endometrial stromal cells (28). In these cultured endometrial stromal cells, TIMP-1 and TIMP-3 but not MMP-9 mRNA were expressed.

[8] = system: MMP-9; assay: MMP-9 mRNA expression in cultured human endometrial stromal cells; type: cell-based
Source text: as §2

[9] = system: TIMP-1; assay: TIMP-1 mRNA expression in cultured human endometrial stromal cells; type: cell-based; details: vs control cells
Source text: as §1, §2

Row | Compound | levels of procollagenase in the culture medium [1] | level of TIMPs in the culture media [3] | TIMP-3 mRNA expression [7] | TIMP-1 mRNA expression [9] | other results
1 | C[C@]12CC[C@@H]3c4ccc(O)cc4CC[C@H]3[C@@H]1CC[C@@H]2O [17β-estradiol] | declined | increased | – | – | procollagenase activity [2]: doubled
2 | C[C@]12CC[C@H](OS(=O)(=O)O)CC1=CC[C@@H]1[C@@H]2CC[C@]2(C)C(=O)CC[C@@H]12 [DHEAS, dehydroepiandosterone sulfate] | – | – | – | – | increase in collagenase activity [4]: over 150%
3 | CNC(=O)[C@@H](NC(=O)[C@H](CC(C)C)[C@H](O)C(=O)NO)C(C)(C)C [Marimastat] | – | – | – | – | plasma levels [5]: substantially higher than those required for MMP inhibition in vitro
4 | CC(=O)[C@H]1CC[C@H]2[C@@H]3CCC4=CC(=O)CC[C@]4(C)[C@H]3CC[C@]12C [progesterone] | declined | increased | – | – | gene expression of matrix metalloproteinases [6]: repressed
5 | IL-1β: cytokine | – | – | decrease | decrease | procollagenase production [2]: two-fold increase; MMP-9 expression [8]: stimulation
6 | TGF-β | – | – | augmented | augmented | –
